Laboratory results from EPA's ToxValDB 9.5 (doi:10.2903/j.efsa.2009.178r).

Key:
[1] = tested on: Aphidius rhopalosiphi; test: LR50; higher = less toxic; conditions: not reported; mortality
[2] = tested on: Typhlodromus pyri; test: LR50; higher = less toxic; conditions: not reported; mortality
[3] = tested on: Apis mellifera; conditions: acute, mortality
[4] = tested on: Tagia sp.; conditions: acute; mortality
[5] = tested on: Daphnia magna; conditions: chronic/long-term; duration: 21 days; mobility
[6] = tested on: Colinus virginianus; conditions: acute; oral; diet; mortality
[7] = tested on: Anas platyrhynchos
[8] = tested on: Oncorhynchus mykiss
[9] = tested on: Rattus norvegicus
[10] = tested on: Procambarus sp.; conditions: acute; duration: 96 hours; mortality
[11] = tested on: Canidae; conditions: chronic; duration: 1 years; oral; Dog Other; histopathology: nonneoplastic

COC(=O)c1ccccc1CS(=O)(=O)NC(=O)Nc1nc(OC)cc(OC)n1 [Bensulfuron-methyl]
LR50 [1]: > 600 g/ha
LR50 [2]: > 600 g/ha
LD50 ([3]; dermal): > 100 µg/piece
LD50 ([3]; oral, unspecified): > 51.4 µg/piece
LC50 [4]: > 1000 mg/kg
NOEC [5]: 12 mg/L
LC50 [6]: > 1680 mg/kg-day
LD50 ([7]; acute, oral, unspecified, M/F, mortality): ≥ 2510 mg/kg
NOEC ([7]; reproductive): 83 mg/kg-day
LC50 ([7]; short-term, oral, feed, mortality): > 1690 mg/kg-day
LC50 ([8]; acute, duration: 96 hours, mortality): > 66 µg/mL
NOEC ([8]; chronic/long-term, duration: 90 days, other): 1.5 mg/L
LD50 ([9]; acute, oral, mortality): ≥ 5000 mg/kg
NOEL ([9]; reproduction developmental, reproduction): 20.9 mg/kg-day
LC50 [10]: > 71 µg/mL
NOAEL [11]: 19.9 mg/kg-day
